This is an account of results in ChEMBL document CHEMBL4483862, “Open-source discovery of chemical leads for next-generation chemoprotective antimalarials” (2018).

This assay relates to Plasmodium berghei. In words: Luciferase/luciferin-expressing antifolate-resistant parasites were used to infect a culture of HepG2 cells that were pre-incubated with compounds. Infected hepatocytes emit light due to the luciferase reaction. Assay results are presented as the percent inhibition of light emission compared to control. […]. It is filed as functional. Particulars: sporozoite; for IC90: read-out: LUCIFERASE INFECTION ASSAY - IC90.

[1] abbreviates: read-out: LUCIFERASE INFECTION ASSAY - IC50.

What is called IC50 is the concentration that gives 50% inhibition. In general, IC90 refers to the concentration needed for an effect of 90%. With `Cn1ccnc1SCC(=O)N1N=C2/C(=C/c3ccccc3)CCCC2C1c1ccccc1` (centres undefined), the IC90 was over 10 µM. Moreover, the IC50 (PBLUC_HILL_SLOPE 2.84, PBLUC_R_SQUARED 0.326, read-out: LUCIFERASE INFECTION ASSAY - IC50) was determined as 8.34 µM.
Turning to `O=C(c1cc(-c2cccc3ccccc23)nc2ccccc12)N1CCN(c2ncccn2)CC1`, the IC90 was over 10 µM. Besides, for the setting “PBLUC_HILL_SLOPE 2.78, PBLUC_R_SQUARED 0.395, read-out: LUCIFERASE INFECTION ASSAY - IC50”, the IC50 was found to be 8.3 µM.
Consider `COC(=O)c1ccccc1N1C(=O)C=CC1=O`, for which the IC90 amounted to 5.93 µM. In addition, the IC50 (FFLUC_HILL_SLOPE 4.6, FFLUC_R_SQUARED 0.0459, HEPG2TOX_HILL_SLOPE 7.42, HEPG2TOX_R_SQUARED 0.806, PBLUC_HILL_SLOPE 7.78, PBLUC_R_SQUARED 0.766, read-out: LUCIFERASE INFECTION ASSAY - IC50) was determined as 4.47 µM.
Consider `O=C(/C=C/c1ccccc1[N+](=O)[O-])c1cccc(C(F)(F)F)c1`, for which the IC90 was determined as 5.08 µM. For the same compound, the IC50 under setting [1] was 4.89 µM.
With `c1ccc(Oc2ccccc2-c2cnc3c(NCCc4cccnc4)nccn23)cc1`, the IC90 stood at 7.62 µM. For the same compound, the IC50 (HEPG2TOX_HILL_SLOPE 47.6, HEPG2TOX_R_SQUARED 0.873, PBLUC_HILL_SLOPE 7.25, PBLUC_R_SQUARED 0.536, read-out: LUCIFERASE INFECTION ASSAY - IC50) worked out at 5.63 µM.
As for `O=[N+]([O-])c1ccc(Oc2c(Cl)cc(S(=O)(=O)N3CCCCC3)cc2Cl)c(Cl)c1`, the IC90 is over 7.09 µM. Besides, for the setting “PBLUC_HILL_SLOPE 7.39, PBLUC_R_SQUARED 0.0349, read-out: LUCIFERASE INFECTION ASSAY - IC50”, the IC50 was over 7.09 µM.
With `FC(F)(F)Oc1cccc(-c2ccc3ncc(-c4cccs4)n3n2)c1`, the IC90 is over 10 µM. For the setting “PBLUC_HILL_SLOPE 2.85, PBLUC_R_SQUARED 0.222, read-out: LUCIFERASE INFECTION ASSAY - IC50”, the IC50 came out at 9.07 µM.
For `NC(Cc1ccc(F)cc1)c1csc(Nc2ncccn2)n1` (centres undefined), the IC90 was 4.09 µM. Also, the IC50 (HEPG2TOX_HILL_SLOPE 5.82, HEPG2TOX_R_SQUARED 0.311, PBLUC_HILL_SLOPE 16.5, PBLUC_R_SQUARED 0.556, read-out: LUCIFERASE INFECTION ASSAY - IC50) came to 3.58 µM.
On to `O=C(Nc1ccc(F)cc1)c1csc(C(O)c2cccc(Cl)c2)n1` (centres undefined), for which the IC90 was over 10 µM. Moreover, under setting [1], the IC50 was over 10 µM.
On to `Cc1cc(C)c(NC(=O)c2cc(-c3ccccc3)nn2-c2ccccc2)c(C)c1`, for which the IC90 is over 10 µM. The IC50 under setting [1] is over 10 µM.
Turning to `CCn1c2ccccc2c2cc(Nc3cc(-c4ccc(O)cc4)ncn3)ccc21`, the IC90 is 5.79 µM. Also, under setting [1], the IC50 worked out at 2.24 µM.
`Cc1ccc(C)c(Sc2ccc(S(=O)(=O)NCCN(C)C)cc2)c1`: the IC90 was over 10 µM. The IC50 under setting [1] was over 10 µM.
As for `Cc1oc(-c2ccc(Cl)cc2)cc1C(=O)Nc1cc(-c2cc(C(C)(C)C)oc2C)nn1-c1cc(C(F)(F)F)cc(C(F)(F)F)c1`, the IC90 is over 5.08 µM. Moreover, where the note is “PBLUC_HILL_SLOPE 1.26, PBLUC_R_SQUARED 0.137, read-out: LUCIFERASE INFECTION ASSAY - IC50”, the IC50 is over 5.08 µM.
For the compound `CC(C)c1cccc(-c2nc3ccnc(NCc4ccc(N(C)C)cc4)c3[nH]2)c1`, the IC90 is over 10 µM. The IC50 (HEPG2TOX_HILL_SLOPE 6.72, HEPG2TOX_R_SQUARED 0.795, PBLUC_HILL_SLOPE 11.9, PBLUC_R_SQUARED 0.428, read-out: LUCIFERASE INFECTION ASSAY - IC50) is 8.78 µM.
As for `O=[N+]([O-])c1cc2c(c(Cn3c(COc4ccc(Cl)cc4Cl)nc4ccccc43)c1)OCOC2`, the IC90 worked out at 7.34 µM. Also, the IC50 (FFLUC_HILL_SLOPE 4.75, FFLUC_R_SQUARED 0.0792, PBLUC_HILL_SLOPE 3.98, PBLUC_R_SQUARED 0.767, read-out: LUCIFERASE INFECTION ASSAY - IC50) is 4.23 µM.
For `CC(=O)c1cccc(-c2cnc3ccc(Cc4ccccc4)nn23)c1`, the IC90 was 8.78 µM. Under “HEPG2TOX_HILL_SLOPE 1.13, HEPG2TOX_R_SQUARED 0.363, PBLUC_HILL_SLOPE 4.01, PBLUC_R_SQUARED 0.469, read-out: LUCIFERASE INFECTION ASSAY - IC50”, the IC50 turned out to be 5.08 µM.
Take `CN1CCN(c2ccc(-c3cn4c(-c5cccc(O)c5)cnc4cn3)cn2)CC1`: the IC90 is over 8.54 µM. Further, the IC50 (PBLUC_HILL_SLOPE 4.85, PBLUC_R_SQUARED 0.265, read-out: LUCIFERASE INFECTION ASSAY - IC50) was 7.18 µM.
On to `O=C(/C=C/c1cccs1)N1CCN(S(=O)(=O)c2ccc(Cl)c(C(F)(F)F)c2)CC1`, for which the IC90 was over 10 µM. Further, the IC50 (PBLUC_HILL_SLOPE 2.7, PBLUC_R_SQUARED 0.367, read-out: LUCIFERASE INFECTION ASSAY - IC50) was 5.47 µM.
Regarding `Cc1cc(=O)n(-c2ccc(C(F)(F)F)cc2[N+](=O)[O-])[nH]1`, the IC90 is over 10 µM. Also, the concentration for half-maximal inhibition (IC50) under setting [1] was over 10 µM.
With `O=C1OC(c2ccc(C(=O)c3ccccc3)cc2)=N/C1=C1\CCCCCN1`, the IC90 is over 10 µM. Further, the IC50 (HEPG2TOX_HILL_SLOPE 4.29, HEPG2TOX_R_SQUARED 0.683, PBLUC_HILL_SLOPE 20.1, PBLUC_R_SQUARED 0.207, read-out: LUCIFERASE INFECTION ASSAY - IC50) came to 9.14 µM.
Regarding `Cc1nnsc1C(=O)Nc1ccc(-n2nc(C(F)(F)F)cc2C(F)(F)F)cc1`, the concentration for an effect of 90% (IC90) was over 7.83 µM. For the setting “PBLUC_HILL_SLOPE 2.63, PBLUC_R_SQUARED 0.209, read-out: LUCIFERASE INFECTION ASSAY - IC50”, the IC50 came out at 5.65 µM.
Take `O=C(CSCc1nc2ccccc2[nH]1)Nc1nc(-c2ccc(NC(=O)c3ccccc3)cc2)cs1`: the IC90 is over 10 µM. Further, the IC50 (PBLUC_HILL_SLOPE 14.9, PBLUC_R_SQUARED 0.81, read-out: LUCIFERASE INFECTION ASSAY - IC50) was 9.28 µM.
`Cc1cc(=O)n2ncnc2n1CC(O)COc1ccc(Oc2ccccc2)cc1` (centres undefined): the IC90 amounted to 8.2 µM. The IC50 (HEPG2TOX_HILL_SLOPE 1.76, HEPG2TOX_R_SQUARED 0.892, PBLUC_HILL_SLOPE 2.97, PBLUC_R_SQUARED 0.356, read-out: LUCIFERASE INFECTION ASSAY - IC50) turned out to be 3.91 µM.
For `COc1ccc(-c2cnc3cnc(-c4ccc(O)cc4)cn23)cc1`, the IC90 was over 10.4 µM. Also, the IC50 (HEPG2TOX_HILL_SLOPE 3.68, HEPG2TOX_R_SQUARED 0.904, PBLUC_HILL_SLOPE 3.01, PBLUC_R_SQUARED 0.439, read-out: LUCIFERASE INFECTION ASSAY - IC50) is 5.92 µM.
As to `CCc1cc2c(=O)n(Cc3ccco3)c(SCC(=O)N(C)C3CCS(=O)(=O)C3)nc2s1` (centres undefined), the IC90 is over 10 µM. Moreover, under setting [1], the IC50 was over 10 µM.
In the case of `Nc1nnc(SCc2c(F)cccc2Cl)[nH]1`, the IC90 was over 12.8 µM. Also, the IC50 under setting [1] was over 12.8 µM.
As to `COc1ccc(OCC(O)CNCC23CC4CC(CC(C4)C2)C3)c(C(C)(C)C)c1` (centres undefined), the IC90 turned out to be 9.84 µM. Also, under “PBLUC_HILL_SLOPE 14.7, PBLUC_R_SQUARED 0.42, read-out: LUCIFERASE INFECTION ASSAY - IC50”, the IC50 is 8.48 µM.
Turning to `CN(C)c1ccc(CNCC2(c3ccnc(-c4cccc(N(C)C)c4)c3)CC2)cc1`, the IC90 was over 10 µM. Moreover, the IC50 (PBLUC_HILL_SLOPE 3.17, PBLUC_R_SQUARED 0.141, read-out: LUCIFERASE INFECTION ASSAY - IC50) was determined as 9.64 µM.
As for `COc1cc(-c2ccc3ncc(-c4cccs4)n3n2)cc(OC)c1OC`, the IC90 came out at 4.08 µM. Moreover, where the note is “HEPG2TOX_HILL_SLOPE 2.45, HEPG2TOX_R_SQUARED 0.958, PBLUC_HILL_SLOPE 3.17, PBLUC_R_SQUARED 0.64, read-out: LUCIFERASE INFECTION ASSAY - IC50”, the IC50 was determined as 2.04 µM.
`CSC(SC)=C(C#N)S(=O)(=O)C(C)C`: the IC90 is over 13.1 µM. Also, under setting [1], the IC50 was over 13.1 µM.
Turning to `Cc1cc(NC(=O)c2cccc(S(=O)(=O)N3c4ccccc4CC3C)c2)no1` (centres undefined), the IC90 came to 1.24 µM. For the same compound, for the setting “PBLUC_HILL_SLOPE 18.4, PBLUC_R_SQUARED 0.605, read-out: LUCIFERASE INFECTION ASSAY - IC50”, the IC50 was 1.1 µM.
In the case of `CN(C)CCCOc1ccc(-c2cn3c(-c4ccc5ncccc5c4)cnc3cn2)cn1`, the IC90 came out at 7.35 µM. Also, the IC50 (HEPG2TOX_HILL_SLOPE 9.84, HEPG2TOX_R_SQUARED 0.59, PBLUC_HILL_SLOPE 45.1, PBLUC_R_SQUARED 0.189, read-out: LUCIFERASE INFECTION ASSAY - IC50) came to 7 µM.
As for `Cc1cc2c(cc1C)CSC(c1ccccc1OC(=O)c1cccc3ccccc13)SC2`, the IC90 is over 10 µM. For the same compound, the IC50 (FFLUC_HILL_SLOPE 3.12, FFLUC_R_SQUARED 0.597, read-out: LUCIFERASE INFECTION ASSAY - IC50) was over 10 µM.
On to `Cc1cc(C)cc(C(=O)Nc2nc3ccccc3[nH]2)c1`, for which the IC90 is over 10 µM. Under setting [1], the IC50 was found to be 7.33 µM.
On to `C=CCNC(=O)CN(C)S(=O)(=O)c1ccc2c(c1)OCCCO2`, for which the IC90 is over 10 µM. Further, under setting [1], the IC50 was over 10 µM.
In the case of `Cc1c(C(=O)Nc2ccnn2Cc2ccccc2)cnn1C(C)(C)C`, the IC90 was over 10 µM. Besides, the IC50 (PBLUC_HILL_SLOPE 2.67, PBLUC_R_SQUARED 0.113, read-out: LUCIFERASE INFECTION ASSAY - IC50) was over 10 µM.
In the case of `O=S(=O)(c1ccccc1)c1nc(Nc2ccc(F)cc2F)sc1Cl`, the IC90 is over 10 µM. In addition, the IC50 (HEPG2TOX_HILL_SLOPE 0.283, HEPG2TOX_R_SQUARED 0.886, PBLUC_HILL_SLOPE 3.77, PBLUC_R_SQUARED 0.219, read-out: LUCIFERASE INFECTION ASSAY - IC50) worked out at 7.29 µM.
